Measurements taken from the NIST ThermoML archive (doi:10.1016/j.fluid.2010.02.037).

Conditions: Gas, Oscillating disk viscometry

CCN(CC)CC [triethylamine]
Conditions | viscosity [mPa·s]
394.49 K, Amount density=6.31 mol/m3 | 0.00837
394.51 K, Amount density=4.99 mol/m3 | 0.008386
394.56 K, Amount density=2.2 mol/m3 | 0.008413
394.86 K, Amount density=7.52 mol/m3 | 0.008384
394.95 K, Amount density=3.13 mol/m3 | 0.008423
395.11 K, Amount density=8.75 mol/m3 | 0.008369
408.35 K, Amount density=8.75 mol/m3 | 0.00864
408.97 K, Amount density=6.31 mol/m3 | 0.008662
409.2 K, Amount density=2.2 mol/m3 | 0.008718
409.32 K, Amount density=4.99 mol/m3 | 0.008707
409.67 K, Amount density=7.52 mol/m3 | 0.00869
409.73 K, Amount density=4.2 mol/m3 | 0.008711
412.99 K, Amount density=3.13 mol/m3 | 0.008804
422.67 K, Amount density=8.75 mol/m3 | 0.008939
422.79 K, Amount density=2.2 mol/m3 | 0.008996
423.03 K, Amount density=7.52 mol/m3 | 0.008963
423.25 K, Amount density=4.99 mol/m3 | 0.008991
423.41 K, Amount density=3.13 mol/m3 | 0.009012
423.92 K, Amount density=6.31 mol/m3 | 0.008966
423.93 K, Amount density=4.2 mol/m3 | 0.008988
436.97 K, Amount density=4.2 mol/m3 | 0.009275
437.11 K, Amount density=6.31 mol/m3 | 0.009249
437.42 K, Amount density=2.2 mol/m3 | 0.009296
437.51 K, Amount density=3.13 mol/m3 | 0.009315
437.62 K, Amount density=4.99 mol/m3 | 0.009286
437.76 K, Amount density=8.75 mol/m3 | 0.009255
437.87 K, Amount density=7.52 mol/m3 | 0.009269
451.28 K, Amount density=4.99 mol/m3 | 0.009572
451.45 K, Amount density=8.75 mol/m3 | 0.009534
451.66 K, Amount density=6.31 mol/m3 | 0.009554
451.72 K, Amount density=2.2 mol/m3 | 0.009594
451.74 K, Amount density=3.13 mol/m3 | 0.009599
451.76 K, Amount density=4.2 mol/m3 | 0.009586
451.93 K, Amount density=7.52 mol/m3 | 0.009558
465.92 K, Amount density=6.31 mol/m3 | 0.009846
466.45 K, Amount density=4.99 mol/m3 | 0.009879
466.58 K, Amount density=2.2 mol/m3 | 0.009907
466.63 K, Amount density=8.75 mol/m3 | 0.009851
466.71 K, Amount density=4.2 mol/m3 | 0.009893
469.98 K, Amount density=3.13 mol/m3 | 0.009985
471.39 K, Amount density=7.52 mol/m3 | 0.009972
480.12 K, Amount density=8.75 mol/m3 | 0.01013
480.36 K, Amount density=2.2 mol/m3 | 0.01019
480.43 K, Amount density=4.99 mol/m3 | 0.01017
480.7 K, Amount density=7.52 mol/m3 | 0.01015
480.86 K, Amount density=3.13 mol/m3 | 0.0102
481.09 K, Amount density=6.31 mol/m3 | 0.01015
481.32 K, Amount density=4.2 mol/m3 | 0.01019
495.17 K, Amount density=6.31 mol/m3 | 0.01045
495.29 K, Amount density=4.99 mol/m3 | 0.01047
495.31 K, Amount density=4.2 mol/m3 | 0.01049
495.84 K, Amount density=7.52 mol/m3 | 0.01046
496.21 K, Amount density=8.75 mol/m3 | 0.01046
498.38 K, Amount density=3.13 mol/m3 | 0.01057
498.45 K, Amount density=2.2 mol/m3 | 0.01056
